The supplement of paper PMC10307832

Assays:
Assay in all cases: relative viability (nuclei count vs DMSO), 5 days (fraction); higher = more cells survive
[1] = test system: NCI-H1650
Summary of the method: (§1)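 After 5 days of treatment, lung cancer cells in 1536-well plates were fixed and stained in a single step (final 0.05% Triton X-100, 1% formaldehyde, 1 ug/ml Hoechst) and their nuclei counted on 4× images. Treatment had been applied by pin tool the day after seeding as one drug alone or as a fixed anchor-drug dose with five library-drug doses (not always all listed) in √10 steps. Relative viability is the nuclei count of treated wells divided by that of vehicle wells, and values are medians of duplicate plates.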

[2] = test system: NCI-H441
Summary of the method: as §1

[3] = test system: NCI-H2087
Summary of the method: as §1

[4] = test system: NCI-H838
Summary of the method: as §1

[5] = test system: NCI-H1651
Summary of the method: as §1

[6] = test system: NCI-H2009
Summary of the method: as §1

[7] = test system: PC-3 [JPC-3]
Summary of the method: as §1

[8] = test system: NCI-H23
Summary of the method: as §1

[9] = test system: NCI-H1975
Summary of the method: as §1

[10] = test system: NCI-H2085
Summary of the method: as §1

[11] = test system: NCI-H2170
Summary of the method: as §1

[12] = test system: H3255
Summary of the method: as §1

[13] = test system: EPLC-272H
Summary of the method: as §1

[14] = test system: NCI-H727
Summary of the method: as §1

[15] = test system: LC-2-ad
Summary of the method: as §1

[16] = test system: LOU-NH91
Summary of the method: as §1

[17] = test system: NCI-H2023
Summary of the method: as §1

[18] = test system: NCI-H2228
Summary of the method: as §1

[19] = test system: HARA
Summary of the method: as §1

[20] = test system: SW 1573
Summary of the method: as §1

[21] = test system: UMC-11
Summary of the method: as §1

Structure (SMILES): CN1CCN(CCOc2cc(OC3CCOCC3)c3c(Nc4c(Cl)ccc5c4OCO5)ncnc3c2)CC1 [Saracatinib] + CC1(C)CCC(c2ccc(Cl)cc2)=C(CN2CCN(c3ccc(C(=O)NS(=O)(=O)c4ccc(N[C@H](CCN5CCOCC5)CSc5ccccc5)c(S(=O)(=O)C(F)(F)F)c4)cc3)CC2)C1 [Navitoclax] (partner 0.5 µM)
- relative viability ([1]; first compound 0.02 µM): 1.17
- relative viability ([1]; first compound 0.2 µM): 1.1
- relative viability ([1]; first compound 0.6325 µM): 0.983
- relative viability ([1]; first compound 2 µM): 0.981
- relative viability ([2]; first compound 0.02 µM): 0.566
- relative viability ([2]; first compound 0.2 µM): 0.681
- relative viability ([2]; first compound 0.6325 µM): 0.832
- relative viability ([2]; first compound 2 µM): 0.624
- relative viability ([3]; first compound 0.02 µM): 1.03
- relative viability ([3]; first compound 0.2 µM): 1.04
- relative viability ([3]; first compound 0.6325 µM): 1.14
- relative viability ([3]; first compound 2 µM): 1.05
- relative viability ([4]; first compound 0.02 µM): 1.15
- relative viability ([4]; first compound 0.2 µM): 1.02
- relative viability ([4]; first compound 0.6325 µM): 1.03
- relative viability ([4]; first compound 2 µM): 0.918
- relative viability ([5]; first compound 0.02 µM): 1.06
- relative viability ([5]; first compound 0.2 µM): 0.681
- relative viability ([5]; first compound 0.6325 µM): 0.998
- relative viability ([5]; first compound 2 µM): 1.03
- relative viability ([6]; first compound 0.02 µM): 1.15
- relative viability ([6]; first compound 0.2 µM): 1.07
- relative viability ([6]; first compound 0.6325 µM): 1.15
- relative viability ([6]; first compound 2 µM): 1.16
- relative viability ([7]; first compound 0.02 µM): 0.806
- relative viability ([7]; first compound 0.2 µM): 0.754
- relative viability ([7]; first compound 0.6325 µM): 0.726
- relative viability ([7]; first compound 2 µM): 0.508
- relative viability ([8]; first compound 0.02 µM): 0.815
- relative viability ([8]; first compound 0.6325 µM): 0.847
- relative viability ([8]; first compound 2 µM): 0.52
- relative viability ([9]; first compound 0.02 µM): 1.17
- relative viability ([9]; first compound 0.6325 µM): 1.06
- relative viability ([9]; first compound 2 µM): 0.749
- relative viability ([10]; first compound 0.02 µM): 1.12
- relative viability ([10]; first compound 0.2 µM): 1.05
- relative viability ([10]; first compound 0.6325 µM): 1.19
- relative viability ([10]; first compound 2 µM): 1.07
- relative viability ([11]; first compound 0.02 µM): 0.57
- relative viability ([11]; first compound 0.2 µM): 0.564
- relative viability ([11]; first compound 0.6325 µM): 0.609
- relative viability ([11]; first compound 2 µM): 0.39
- relative viability ([12]; first compound 0.02 µM): 0.515
- relative viability ([12]; first compound 0.2 µM): 0.393
- relative viability ([12]; first compound 0.6325 µM): 0.302
- relative viability ([12]; first compound 2 µM): 0.0997
- relative viability ([13]; first compound 0.02 µM): 1.19
- relative viability ([13]; first compound 0.2 µM): 0.976
- relative viability ([13]; first compound 0.6325 µM): 1.19
- relative viability ([13]; first compound 2 µM): 0.999
- relative viability ([14]; first compound 0.02 µM): 0.499
- relative viability ([14]; first compound 0.2 µM): 0.285
- relative viability ([14]; first compound 0.6325 µM): 0.48
- relative viability ([14]; first compound 2 µM): 0.225
- relative viability ([15]; first compound 0.02 µM): 0.453
- relative viability ([15]; first compound 0.6325 µM): 0.448
- relative viability ([15]; first compound 2 µM): 0.348
- relative viability ([16]; first compound 0.02 µM): 0.678
- relative viability ([16]; first compound 0.2 µM): 0.418
- relative viability ([16]; first compound 0.6325 µM): 0.405
- relative viability ([16]; first compound 2 µM): 0.361
- relative viability ([17]; first compound 0.02 µM): 1.04
- relative viability ([17]; first compound 0.2 µM): 0.808
- relative viability ([17]; first compound 0.6325 µM): 1.02
- relative viability ([17]; first compound 2 µM): 0.987
- relative viability ([18]; first compound 0.02 µM): 1.29
- relative viability ([18]; first compound 0.2 µM): 0.831
- relative viability ([18]; first compound 0.6325 µM): 1.24
- relative viability ([18]; first compound 2 µM): 0.459
- relative viability ([19]; first compound 0.02 µM): 1.2
- relative viability ([19]; first compound 0.6325 µM): 1.1
- relative viability ([19]; first compound 2 µM): 0.984
- relative viability ([20]; first compound 0.02 µM): 0.958
- relative viability ([20]; first compound 0.2 µM): 0.969
- relative viability ([20]; first compound 0.6325 µM): 0.919
- relative viability ([20]; first compound 2 µM): 0.838
- relative viability ([21]; first compound 0.02 µM): 0.318
- relative viability ([21]; first compound 0.6325 µM): 0.295
- relative viability ([21]; first compound 2 µM): 0.267
